Assay results as given in patent US10770169B2, “Method of providing a treatment to a subject based on a dynamic pathway map” (THE REGENTS OF THE UNIVERSITY OF CALIFORNIA, priority 2010, dated 2020).
Where two headings read alike, the source gives them in different places.

Tested on: panel of 55 breast cancer cell lines
Assay: Cell growth inhibition assay (Cell Titer Glo, 72 h, 9 doses; GI50, TGI, LC50)
Assay type: cell-based, human
Conditions: Homo sapiens, read-out: GI50 (converted)

How did the GI50 (AU565, AU565 cell line, censored GI50 values) turn out when `CO[C@H]1C[C@@H]2CC[C@@H](C)[C@@](O)(O2)C(=O)C(=O)N2CCCC[C@H]2C(=O)O[C@H]([C@H](C)C[C@@H]2CC[C@@H](O)[C@H](OC)C2)CC(=O)[C@H](C)/C=C(\C)[C@@H](O)[C@@H](OC)C(=O)[C@H](C)C[C@H](C)/C=C/C=C/C=C/1C` [Rapamycin] was run?
Its GI50 is 31.6 nM.

And the GI50 (AU565, cell line AU565)?
Its GI50 is 31.6 nM.

And the GI50 (BT-20, BT20 cell line, censored GI50 values)?
Its GI50 is 13.5 nM.

And the GI50 (BT-20, cell line BT20)?
Its GI50 is 13.5 nM.

What about the GI50 (BT-474, BT474 cell line, censored GI50 values) of the same compound?
The GI50 was 15.1 nM.

And the GI50 (BT-474, cell line BT474)?
The GI50 was 15.1 nM.

And the GI50 (BT-483, BT483 cell line, censored GI50 values)?
The GI50 was 1.66 nM.

And the GI50 (BT-483, cell line BT483)?
Its GI50 is 1.66 nM.

And the GI50 (BT-549, BT549 cell line, censored GI50 values)?
Its GI50 is 33100 nM.

What about the GI50 (BT-549, cell line BT549) of the same compound?
The GI50 was 33100 nM.

And the GI50 (CAMA-1, CAMA1 cell line, censored GI50 values)?
Its GI50 is 15.1 nM.

And the GI50 (CAMA-1, cell line CAMA1)?
Its GI50 is 15.1 nM.

What about the GI50 (HCC38, HCC38 cell line, censored GI50 values) of the same compound?
The GI50 was 33.9 nM.

And the GI50 (HCC38, cell line HCC38)?
The GI50 was 33.9 nM.

And the GI50 (HCC70, HCC70 cell line, censored GI50 values)?
The GI50 was 120 nM.

And the GI50 (HCC70, cell line HCC70)?
Its GI50 is 120 nM.

And the GI50 (HCC202, HCC202 cell line, censored GI50 values)?
The GI50 was 5.01 nM.

And the GI50 (HCC202, cell line HCC202)?
Its GI50 is 5.01 nM.

And the GI50 (HCC1187, HCC1187 cell line, censored GI50 values)?
The GI50 was 32.4 nM.

And the GI50 (HCC1187, cell line HCC1187)?
The GI50 was 32.4 nM.

And the GI50 (HCC1419, HCC1419 cell line, censored GI50 values)?
Its GI50 is 4.37 nM.

And the GI50 (HCC1419, cell line HCC1419)?
The GI50 was 4.37 nM.

And the GI50 (HCC1428, HCC1428 cell line, censored GI50 values)?
Its GI50 is 51.3 nM.

What about the GI50 (HCC1428, cell line HCC1428) of the same compound?
Its GI50 is 51.3 nM.

And the GI50 (HCC1500, HCC1500 cell line, censored GI50 values)?
The GI50 was 93300 nM.

What about the GI50 (HCC1500, cell line HCC1500) of the same compound?
The GI50 was 93300 nM.

What about the GI50 (HCC1806, HCC1806 cell line, censored GI50 values) of the same compound?
The GI50 was 66100 nM.

And the GI50 (HCC1806, cell line HCC1806)?
The GI50 was 66100 nM.

And the GI50 (HCC1937, HCC1937 cell line, censored GI50 values)?
The GI50 was 1230 nM.

And the GI50 (HCC1937, cell line HCC1937)?
Its GI50 is 1230 nM.

What about the GI50 (HCC1954, HCC1954 cell line, censored GI50 values) of the same compound?
The GI50 was 3.55 nM.

What about the GI50 (HCC1954, cell line HCC1954) of the same compound?
Its GI50 is 3.55 nM.

What about the GI50 (HCC2185 cell line, censored GI50 values) of the same compound?
The GI50 was 1.62 nM.

And the GI50 (HCC3153 cell line, censored GI50 values)?
Its GI50 is 5620 nM.

What about the GI50 (MCF7, MCF7 cell line, censored GI50 values) of the same compound?
Its GI50 is 145 nM.

What about the GI50 (MCF7, cell line MCF7) of the same compound?
Its GI50 is 145 nM.

What about the GI50 (MDA-MB-134-VI, MDAMB134VI cell line, censored GI50 values) of the same compound?
Its GI50 is 6.76 nM.

What about the GI50 (MDA-MB-157, cell line MDAMB157) of the same compound?
The GI50 was 166000 nM.

And the GI50 (MDA-MB-175-VII, MDAMB175VII cell line, censored GI50 values)?
The GI50 was 3.72 nM.

And the GI50 (MDA-MB-231, MDAMB231 cell line, censored GI50 values)?
The GI50 was 3550 nM.

And the GI50 (MDA-MB-231, cell line MDAMB231)?
The GI50 was 3550 nM.

What about the GI50 (MDA-MB-361, MDAMB361 cell line, censored GI50 values) of the same compound?
The GI50 was 741 nM.

What about the GI50 (MDA-MB-361, cell line MDAMB361) of the same compound?
The GI50 was 741 nM.

And the GI50 (MDA-MB-415, MDAMB415 cell line, censored GI50 values)?
Its GI50 is 2.09 nM.

What about the GI50 (MDA-MB-415, cell line MDAMB415) of the same compound?
The GI50 was 2.09 nM.

And the GI50 (MDA-MB-436, cell line MDAMB436)?
Its GI50 is 166000 nM.

And the GI50 (MDA-MB-468, MDAMB468 cell line, censored GI50 values)?
The GI50 was 2820 nM.

And the GI50 (MDA-MB-468, cell line MDAMB468)?
The GI50 was 2820 nM.

And the GI50 (SK-BR-3, SKBR3 cell line, censored GI50 values)?
Its GI50 is 60.3 nM.

And the GI50 (SK-BR-3, cell line SKBR3)?
Its GI50 is 60.3 nM.

And the GI50 (SUM44PE cell line, censored GI50 values)?
Its GI50 is 0.55 nM.

And the GI50 (SUM52PE, SUM52PE cell line, censored GI50 values)?
The GI50 was 3.02 nM.

What about the GI50 (SUM52PE, cell line SUM52PE) of the same compound?
Its GI50 is 3.02 nM.

And the GI50 (SUM149PT, SUM149PT cell line, censored GI50 values)?
The GI50 was 9330 nM.

What about the GI50 (SUM149PT, cell line SUM149PT) of the same compound?
The GI50 was 9330 nM.

And the GI50 (SUM225CWN, SUM225CWN cell line, censored GI50 values)?
Its GI50 is 16.6 nM.

And the GI50 (SUM225CWN, cell line SUM225CWN)?
Its GI50 is 16.6 nM.

What about the GI50 (SUM1315MO2, SUM1315MO2 cell line, censored GI50 values) of the same compound?
Its GI50 is 3310 nM.

And the GI50 (SUM-159-PT, SUM159PT cell line, censored GI50 values)?
The GI50 was 724 nM.

What about the GI50 (SUM-159-PT, cell line SUM159PT) of the same compound?
Its GI50 is 724 nM.

What about the GI50 (T47D, T47D cell line, censored GI50 values) of the same compound?
The GI50 was 490 nM.

And the GI50 (T47D, cell line T47D)?
The GI50 was 490 nM.

And the GI50 (UACC-812, UACC812 cell line, censored GI50 values)?
Its GI50 is 46.8 nM.

And the GI50 (UACC-812, cell line UACC812)?
The GI50 was 46.8 nM.

And the GI50 (UACC-893, cell line UACC893)?
The GI50 was 166000 nM.

And the GI50 (cell line HCC2185)?
Its GI50 is 1.62 nM.

What about the GI50 (cell line HCC3153) of the same compound?
Its GI50 is 5620 nM.

What about the GI50 (cell line MDAMB134V) of the same compound?
The GI50 was 6.76 nM.

What about the GI50 (cell line MDAMB175V) of the same compound?
The GI50 was 3.72 nM.

And the GI50 (cell line SUM44PE)?
Its GI50 is 0.55 nM.

And the GI50 (cell line SUM1315MO)?
The GI50 was 3310 nM.
